Test results from PubChem BioAssay AID1208 (EPA DSSTox, 2008).
Activity calls are given as the source filed them.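 The calls were made as follows: active = at least one rat sex group has a carcinogenic potency value and tumor site recorded; inconclusive = only rat studies were judged inadequate by the national testing program; inactive = no potency or tumor site, with negative rat experiments.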

Test system: rat chronic carcinogenicity bioassay, TD50
Assay: DSSTox (CPDBAS) Carcinogenic Potency Database Summary Rat Bioassay Results
Conditions: for Potency: stronger effect = lower value; for outcome: TD50_Rat_Note: no positive results
Excerpt: The Carcinogenic Potency Database (CPDB) is a unique and widely used international resource of the results of over 6500 chronic, long-term animal cancer tests on over 1500 chemical substances. The CPDB provides easy access to the bioassay literature, with qualitative and quantitative analyses of both positive and negative experiments that have been published over the past 50 years in the general literature and by the National Cancer Institute/National Toxicology Program. The CPDB standardizes the diverse literature of cancer bioassays that vary widely in protocol, histopathological examination and nomenclature, and in the published author's choices of what information to provide in their papers. Results are reported in the CPDB for tests in rats, mice, hamsters, dogs, and nonhuman primates, and are based on the most positive result among all experiments for each sex-species. The DSSTox CPDBAS (all species) file incorporates data from the CPDB Summary Tables for the full list of over 1500 chemical substances tested in at least one species. Summary bioassay results for Rat (TD50, tumor sites, male, female, both sexes) are provided in the CPDB Summary Tables and the DSSTox CPDBAS file for over 1200 chemical substances.
TD50 is a standardized quantitative measure of carcinogenic potency (analogous to an LD50) and is reported in the CPDB Summary Table for each species. Activity Score for actives is computed by mapping of LOG10 (1/TD50_Rat_mmol) activity values spanning range [MIN, MAX] onto Integer 1-100 Activity Score range, where 100 is highest potency and 1 is lowest: Activity Score = 100 * INTEGER[(log10(1/Activity) - MIN)/(MAX - MIN)]. If activity is reported but no TD50_Rat_mmol value is computed, such as for a mixture, the Activity Score is assigned the activity value "50". […] Target sites are reported for each sex-species group with a positive result in the CPDB on the basis of a positive author's opinion for the particular site, using all results from both the general literature and NCI/NTP bioassays. If a chemical has two or more target sites listed, the results may be from different experiments, and a single site may be a target organ in more than one experiment, as well. Blank entry in TargetSites field indicates no results reported.

[1] = TargetSites_Rat_Female: no positive results
[2] = TD50_Rat_Note: TD50 is harmonic mean of more than one positive test, harmonic mean of TD50 includes a value for upper 99% confidence li, TargetSites_Rat_Female: stomach

Cc1cccc(Nc2cc(Cl)nc(SCC(=O)O)n2)c1C
Potency (TD50_Rat_Note: TD50 is harmonic mean of more than one positive test, harmonic mean of TD50 includes a value for upper 99% confidence li): 4.36 mg/kg/day

CCN(CC)C(=S)S
outcome [1]: inactive; no positive results

CC1(C)COC1=O
Potency (TD50_Rat_Note: TD50 is harmonic mean of more than one positive test, TargetSites_Rat_Female: stomach): 211 mg/kg/day

c1ccc(OCC2CO2)cc1 (centres undefined)
Potency (TD50_Rat_Note: TD50 is harmonic mean of more than one positive test, TargetSites_Rat_Female: nasal cavity): 44 mg/kg/day

O=C(O)CN(CCN(CC(=O)O)CC(=O)O)CC(=O)O
outcome [1]: inactive; no positive results

Nc1ccc([N+](=O)[O-])cc1O
Potency [1]: 111 mg/kg/day

CC(=O)N(C(C)=O)c1cccc2c1Cc1ccccc1-2
Potency (TargetSites_Rat_Female: ear Zymbals gland, mammary gland): 19 mg/kg/day

CNC(=S)NC
outcome: inactive; no positive results

Cc1cc(N)ccc1N
outcome [1]: inactive; no positive results

CCCN(CCC)S(=O)(=O)c1ccc(C(=O)O)cc1
outcome [1]: inactive; no positive results

NCCS(=O)(=O)O
outcome [1]: inactive; no positive results

CCOC(N)=O
Potency (TargetSites_Rat_BothSexes: all tumor bearing animals): 41.3 mg/kg/day

COc1ccc(O)c(C(C)(C)C)c1
Potency [2]: 405 mg/kg/day

CC(C)(Oc1ccc(C2CC2(Cl)Cl)cc1)C(=O)O (centres undefined)
Potency [2]: 1.97 mg/kg/day

CC(O)C(=O)O (centres undefined)
outcome [1]: inactive; no positive results

CN(CCO)N=O
Potency: 1.29 mg/kg/day

CC(C)(C)c1cc(C(C)(C)C)c(O)c(C(C)(C)C)c1
outcome [1]: inactive; no positive results

CCC(C(=O)NC(N)=O)c1ccccc1 (centres undefined)
outcome: inactive; no positive results

COc1cc2c(c3oc(=O)c4c(c13)CCOC4=O)C1C=COC1O2 (centres undefined)
Potency (TD50_Rat_Note: TD50 is harmonic mean of more than one positive test, TD50_Rat_mmol was not calculated for this mixture, but Activiity S): 0.00299 mg/kg/day

CCC(CC)C(=O)NC(N)=O
outcome: inactive; no positive results

Nc1ccc(-c2ccc(N)c(N)c2)cc1N
Potency: 395 mg/kg/day

CCN(N=O)C(=O)NCCO
Potency (TD50_Rat_Note: TD50 is harmonic mean of more than one positive test, TargetSites_Rat_Female: mammary gland, skin, uterus): 0.522 mg/kg/day

O=NN1CCNCC1
Potency (TD50_Rat_Note: TD50 is harmonic mean of more than one positive test, no positive results are statistically significant, TargetSites_Rat_Female: all tumor bearing animals): 8.78 mg/kg/day

[Cl-].[Cl-].[Cl-].[Fe+3]
outcome [1]: inactive; no positive results

C1N2CN3CN1CN(C2)C3
outcome [1]: inactive; no positive results

OCCN(CCO)c1nc(-c2cccs2)nc2ccccc12
outcome [1]: inactive

O=[N+]([O-])c1cc(N(CCO)CCO)ccc1NCCO
outcome [1]: inactive; no positive results

CCCCC(CC)COP(=O)(OCC(CC)CCCC)OCC(CC)CCCC (centres undefined)
outcome [1]: inactive; no positive results

CCCCCCCCCCCCN(C)N=O
Potency (TD50_Rat_Note: TD50 is harmonic mean of more than one positive test, harmonic mean of TD50 includes a value for upper 99% confidence li, TargetSites_Rat_Female: urinary bladder): 0.537 mg/kg/day

O=C(O)C(Cl)(Cl)Cl
outcome: inactive; no positive results

CN(N=O)c1ccc(N=O)cc1
Potency (TD50_Rat_Note: positive test results only by intraperitoneal or intravenous injection, no positive results are statistically significan): 1.3 mg/kg/day

Nc1ccc(NCCO)c([N+](=O)[O-])c1
outcome [1]: inactive; no positive results

Nc1ccc(O)c([N+](=O)[O-])c1
Potency [1]: 309 mg/kg/day

O=[N+]([O-])c1ccc(Cl)c([N+](=O)[O-])c1
outcome: inactive; no positive results

COC(=O)c1ccc(C(=O)OC)cc1
outcome [1]: inactive; no positive results

CCOC(=O)[C@H](CCc1ccccc1)N[C@@H](C)C(=O)N1Cc2ccccc2C[C@H]1C(=O)O
outcome [1]: inactive; no positive results

Nc1nc(N)nc(N)n1
Potency [1]: 735 mg/kg/day

C[C@@H]1CC2(O[C@@H]2C)C(=O)O[C@@H]2CCN(C)C/C=C(/COC(=O)[C@]1(C)O)C2=O (some centres undefined)
Potency (TD50_Rat_Note: TD50 is harmonic mean of more than one positive test, TargetSites_Rat_Female: liver, vascular system): 0.922 mg/kg/day

CC(=O)Nc1cccc2c1-c1ccccc1C2
outcome [1]: inactive

O=[N+]([O-])c1ccc2nc[nH]c2c1
outcome [1]: inactive; no positive results

CC1(C)OC(=O)NC1=O
outcome: inactive; no positive results

O=C(O)CCCc1ccc(N(CCCl)CCCl)cc1
Potency (TD50_Rat_Note: TD50 is harmonic mean of more than one positive test, TargetSites_Rat_Female: ear Zymbals gland, mammary gland, nervous system): 0.896 mg/kg/day

CC(C)O
outcome [1]: inactive; no positive results

CCSCC[C@H](N)C(=O)O
Potency (TD50_Rat_Note: TD50 value is overestimated as upper 99% confidence limit from study with 100% tumor incidence but no lifetable, harmoni): 4.97 mg/kg/day

Clc1ccc(-c2ccc(Cl)c(Cl)c2Cl)c(Cl)c1Cl
Potency (TD50_Rat_Note: TD50 is harmonic mean of more than one positive test, TD50_Rat_mmol was not calculated for this mixture, but Activiity S, TargetSites_Rat_Female: liver): 2.81 mg/kg/day

Cn1cnc2nc(N)[nH]c(=O)c21
outcome (TargetSites_Rat_BothSexes: no positive results): inactive

CC1CCC(C(C)C)C(O)C1 (centres undefined)
outcome [1]: inactive; no positive results

Oc1c(Cl)c(Cl)c(Cl)c(Cl)c1Cl
outcome [1]: inactive; no positive results | Potency (TargetSites_Rat_Female: liver): 13.1 mg/kg/day | Potency [1]: 59 mg/kg/day

Nc1ccc(O)c(N)c1
outcome [1]: inactive; no positive results

CN(CCc1ccccc1)N=O
Potency (TD50_Rat_Note: TD50 is harmonic mean of more than one positive test): 0.00998 mg/kg/day

CC(C)Oc1ccccc1OC(=O)N(C)N=O
Potency: 0.364 mg/kg/day

CN1C(C(=O)Nc2ccccn2)=C(O)c2sc(Cl)cc2S1(=O)=O
outcome [1]: inactive; no positive results
